Each structure is given as a SMILES string.

Assay type in all cases: cell-based
For one experiment, the system named is NCI-H526 cell line. The experiment can be described thus: Cell viability assay for NCI-H526 cell line (EZ-Cytox). The settings on record: Homo sapiens, NCI-H526, 120 h; H526 cells, 5 days, 3000 nM to 0.46 nM. As to the method: (§1) 3. Cell Viability Assay for NCI-H69, NCI-H526 Cell Lines
(§2) (1) Culture of NCI-H69, NCI-H526 Cell Lines
(§3) The NCI-H69 (hereafter H69) and NCI-H526 (hereafter H526) cell lines were purchased from KCLB.
(§4) (2) Treatment of Compounds of the Present Invention and Method of Cell Viability Assay
(§5) After treating the compound to each well to make the total volume of 200 μl, it was cultured in a CO2 incubator (Thermo Fisher Scientific) for 5 days. […] The absorbance of the completely cultured sample was measured by setting the wavelength of a plate reader (BMG Labtech) to […], and was measured after shaking for 3 minutes in a plate reader before measurement.
(§6) The results of cell viability for H526 and H69 cell line are shown in Table 3 and Table 4, respectively.
(§7) In Table 3 and Table 4, Activity represents IC50 value of each Exemplary Compound treatment group to H526 and H69 cell line, respectively (A: <30 nM, B: <50 nM, C: <100 nM, D: <200 nM, E: <400 nM).

In another experiment the test system is MRC-5 cell line. The experiment in a line: Cell viability assay for MRC-5 cell line (EZ-Cytox). The settings on record: Homo sapiens, MRC5, 120 h; MRC-5 normal cell line, 5 days, 10000 nM to 1.52 nM; read-out: Activity: IC50 value, cell viability, MRC-5 cell line (Exemplary Compounds). As to the method: 4. Cell Viability Assay for MRC-5 Cell Line
(1) Culture of MRC-5 Cell Line
The MRC-5 cell line was purchased from KCLB. Passage of cultured cells was maintained within P15.
(2) Treatment of Compounds of the Present Invention
Then, it was cultured in 37° C. CO2 incubator (Thermo Fisher Scientific) for 5 days.
(3) Cytotoxicity Experiment
CO2 incubator for 4 hours.

A further experiment concerns the target T1, PLK1 (Homo sapiens, UniProt P53350).
T1 construct: endogenous in cells; host or cells: HeLa LgBit (Plk1-HiBit KI): HeLa stably expressing LgBit, with a CRISPR/Cas9 knock-in of HiBit at the endogenous PLK1 locus
The experiment in a line: Luciferase assay for PLK1 in HeLa LgBit (Plk1-HiBit KI) cell line. As to conditions: 300 nM compound, luminescence after 9 hours. On the procedure: 2. Luciferase Assay for PLK1
(1) Preparation and Culture of HeLa LgBit (Plk1-HiBit KI) Cell Line
A HeLa cell line in which the LgBit vector was transfected and expressed stably was prepared. Then, after constructing gRNA and donor to express the HiBit amino acid sequence behind the C-terminal of the PLK1 gene, which was inherent in the cell, it was inserted into the cell together with a vector capable of expressing CRISPR/Cas9. Only the cells in which the insertion was completed and knock-in had progressed were selected, sub-cultured and used.
For cell culture, DMEM (Gibco), FBS (Gibco), PS (Gibco), […] cell culture dish (SPL), […] cell culture dish (SPL), 96-well culture plate (SPL), PBS pH 7.4 (Gibco), TrypLE™ Express (Gibco), Cell counter (Thermo Fisher Scientific) and 0.4% Trypan Blue Solution (DYNEBIO) were used.
(2) Treatment of Compounds of the Present Invention and Method of Luciferase Assay
In the case of HeLa LgBit (Plk1-HiBit KI), the compounds were treated after being released after thymidine block, and the process was as follows. Thymidine (Sigma-Aldrich) was completely dissolved in ddH2O and used in the experiment. For thymidine block, the products were treated with 2 mM of thymidine and then incubated for 24 hours. For release and chemical treatment, the medium was suctioned and washed with 1×PBS. TrypLE™ (Gibco) was added and incubated in 37° C. CO2 incubator (Thermo Fisher Scientific) for 5 mins. Cells neutralized by adding complete media were counted through a counter. For each well of a 96-well culture plate (SPL), 3.3×10^4 cells and a total medium volume of 150 μl were seeded and incubated in a CO2 incubator.
Each cell line was incubated in a CO2 incubator for 18 hours, and Endurazine (Promega, Cat. No. N257B) was added to each well to make up 4% of the total volume. After adding compounds of Examples in a 96-well white plate (SPL) to a concentration of 300 nM, the wavelength of the plate reader (BMG Labtech, CLARIOstar Plus) was set to 470-480 nm, and then the luminescence was tracked in real time.
In Table 2, Activity represents the ratio of the luminescence value of each Exemplary Compound treatment group to DMSO treatment group (+++: <0.3, ++: <0.5, +: <0.7).
A general note: The HiBiT peptide binds its large partner to form an active luciferase.

Another experiment relates to NCI-H69 cell line. The experiment can be described thus: Cell viability assay for NCI-H69 cell line (EZ-Cytox). As to conditions: Homo sapiens, NCI-H69, 120 h; H69 cells, 5 days, 3000 nM to 0.46 nM. On the procedure: as §1, §2, §3, §4, §5, §6, §7

T1 sequence (P53350 whole entry): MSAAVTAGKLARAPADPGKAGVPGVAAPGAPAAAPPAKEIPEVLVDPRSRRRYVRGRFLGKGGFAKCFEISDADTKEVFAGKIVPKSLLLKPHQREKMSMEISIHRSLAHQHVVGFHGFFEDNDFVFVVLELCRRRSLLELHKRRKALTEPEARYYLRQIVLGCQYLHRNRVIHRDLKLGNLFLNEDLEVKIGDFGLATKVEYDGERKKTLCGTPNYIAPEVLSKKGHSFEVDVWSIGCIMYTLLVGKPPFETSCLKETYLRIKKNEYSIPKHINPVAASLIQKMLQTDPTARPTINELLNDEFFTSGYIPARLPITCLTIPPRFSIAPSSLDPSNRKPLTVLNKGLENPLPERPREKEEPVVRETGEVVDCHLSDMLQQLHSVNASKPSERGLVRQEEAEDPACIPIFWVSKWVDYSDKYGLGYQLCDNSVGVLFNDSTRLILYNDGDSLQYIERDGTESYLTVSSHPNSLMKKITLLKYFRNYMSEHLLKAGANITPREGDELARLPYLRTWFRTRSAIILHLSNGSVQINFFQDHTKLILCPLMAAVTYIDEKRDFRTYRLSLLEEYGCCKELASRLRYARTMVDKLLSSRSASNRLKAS

In general, IC50 refers to the concentration at which inhibition is half-maximal. Consider `COc1cc(C(=O)NC2CC3(CCN(CC4CCN(c5ccc(C6CCC(=O)NC6=O)cc5F)CC4)CC3)C2)ccc1Nc1ncc2c(n1)N(C)CC(F)(F)C(=O)N2C` (stereo not drawn) [Compound 5, 4-((7,7-difluoro-5,9-dimethyl-6-oxo-6,7,8,9-tetrahydro-5H-pyrimido[4,5-b][1,4]diazepin-2-yl)amino)-N-(7-((1-(4-(2,6-dioxopiperidin-3-yl)-2-fluorophenyl)piperidin-4-yl)methyl)-7-azaspiro[3.5]nonan-2-yl)-3-methoxybenzamide], for which the IC50 was under 100 nM with NCI-H526 cell line, over 10000 nM with MRC-5 cell line and under 100 nM in the experiment with NCI-H69 cell line. Besides, the “Activity: ratio of the luminescence value of compound treatment group to DMSO treatment group” value (“Activity: ratio” below) at PLK1 is recorded as “++ (++: <0.5)”.

As for `COc1cc(C(=O)NC2CCC(N(C)CC3CCN(c4ccc(C5CCC(=O)NC5=O)cc4C)CC3)CC2)ccc1Nc1ncc2c(n1)N(C1CCCC1)CC(F)(F)C(=O)N2C` (stereo not drawn) [Compound 6, 4-((9-cyclopentyl-7,7-difluoro-5-methyl-6-oxo-6,7,8,9-tetrahydro-5H-pyrimido[4,5-b][1,4]diazepin-2-yl)amino)-N-((1r,4r)-4-(((1-(4-(2,6-dioxopiperidin-3-yl)-2-methylphenyl)piperidin-4-yl)methyl)(methyl)amino)cyclohexyl)-3-methoxybenzamide], the figures for the IC50 in the experiment on NCI-H526 cell line, in the experiment with MRC-5 cell line and in the experiment on NCI-H69 cell line were under 100 nM, over 10000 nM and under 50 nM, respectively. For the same compound, on PLK1, the “Activity: ratio” value is “+++ (+++: <0.3)”.

Take `COc1cc(C(=O)NN2CCC(CCN3CCN(c4cc(OC)c(C5CCC(=O)NC5=O)cc4F)CC3)CC2)ccc1Nc1ncc2c(n1)N(C(C)C)CC(F)(F)C(=O)N2C` (stereo not drawn) [Compound 7, 4-((7,7-difluoro-9-isopropyl-5-methyl-6-oxo-6,7,8,9-tetrahydro-5H-pyrimido[4,5-b][1,4]diazepin-2-yl)amino)-N-(4-(2-(4-(4-(2,6-dioxopiperidin-3-yl)-2-fluoro-5-methoxyphenyl)piperazin-1-yl)ethyl)piperidin-1-yl)-3-methoxybenzamide]: the IC50 in the experiment on NCI-H526 cell line is under 50 nM; with MRC-5 cell line, over 10000 nM; in the experiment with NCI-H69 cell line, under 50 nM. In addition, the “Activity: ratio” value on PLK1 is “++ (++: <0.5)”.

For the compound `COc1cc(C(=O)N[C@H]2CC[C@H](N(C)CC3CCN(c4cccc(N5CCC(=O)NC5=O)c4)CC3)CC2)ccc1Nc1ncc2c(n1)N(C1CCCC1)CC(F)(F)C(=O)N2C` [Compound 8, 4-((9-cyclopentyl-7,7-difluoro-5-methyl-6-oxo-6,7,8,9-tetrahydro-5H-pyrimido[4,5-b][1,4]diazepin-2-yl)amino)-N-((1r,4r)-4-(((1-(3-(2,4-dioxotetrahydropyrimidin-1 (2H)-yl)phenyl)piperidin-4-yl)methyl)(methyl)amino)cyclohexyl)-3-methoxybenzamide], the IC50 in the experiment on NCI-H526 cell line was under 30 nM; with MRC-5 cell line it was over 10000 nM; with NCI-H69 cell line, under 30 nM. For the same compound, on PLK1, the “Activity: ratio” value was “++ (++: <0.5)”.

As for `COc1cc(C(=O)N[C@H]2CC[C@H](CN(C)C3CCN(c4ccc(C5CCC(=O)NC5=O)nc4)CC3)CC2)ccc1Nc1ncc2c(n1)N(C1CCCC1)CC(F)(F)C(=O)N2C` (stereo partly drawn) [Compound 9, 4-((9-cyclopentyl-7,7-difluoro-5-methyl-6-oxo-6,7,8,9-tetrahydro-5H-pyrimido[4,5-b][1,4]diazepin-2-yl)amino)-N-((1r,4r)-4-(((1-(6-(2,6-dioxopiperidin-3-yl)pyridin-3-yl)piperidin-4-yl)(methyl)amino)methyl)cyclohexyl)-3-methoxybenzamide], the figures for the IC50 in the experiment on NCI-H526 cell line, with MRC-5 cell line and with NCI-H69 cell line were under 30 nM, over 10000 nM and under 30 nM, respectively. Moreover, the “Activity: ratio” value at PLK1 is listed as “++ (++: <0.5)”.

Regarding `COc1cc(C(=O)NC2CCC(N(C)CC3CCN(c4ccc(C5CCC(=O)NC5=O)nc4)CC3)CC2)ccc1Nc1ncc2c(n1)N(C1CCCC1)CC(F)(F)C(=O)N2C` (stereo not drawn) [Compound 10, 4-((9-cyclopentyl-7,7-difluoro-5-methyl-6-oxo-6,7,8,9-tetrahydro-5H-pyrimido[4,5-b][1,4]diazepin-2-yl)amino)-N-((1r,4r)-4-(((1-(6-(2,6-dioxopiperidin-3-yl)pyridin-3-yl)piperidin-4-yl)methyl)(methyl)amino)cyclohexyl)-3-methoxybenzamide], the 50% inhibitory concentration (IC50) in the experiment with NCI-H526 cell line was under 30 nM; with MRC-5 cell line, over 10000 nM; in the experiment with NCI-H69 cell line, under 30 nM. Besides, the “Activity: ratio” value at PLK1 is recorded as “+++ (+++: <0.3)”.

Turning to `COc1cc(C(=O)NC2CCC(N(C)CC3CCN(c4ccc(C5CCC(=O)NC5=O)nc4)CC3)CC2)ccc1Nc1ncc2c(n1)N(C(C)C)CC(F)(F)C(=O)N2C` (stereo not drawn) [Compound 11, 4-((7,7-difluoro-9-isopropyl-5-methyl-6-oxo-6,7,8,9-tetrahydro-5H-pyrimido[4,5-b][1,4]diazepin-2-yl)amino)-N-((1r,4r)-4-(((1-(6-(2,6-dioxopiperidin-3-yl)pyridin-3-yl)piperidin-4-yl)methyl)(methyl)amino)cyclohexyl)-3-methoxybenzamide], the values for the IC50 in the experiment on NCI-H526 cell line, with MRC-5 cell line and in the experiment with NCI-H69 cell line were under 30 nM, over 10000 nM and under 30 nM, respectively. Also, the “Activity: ratio” value at PLK1 is on record as “++ (++: <0.5)”.

For `COc1cc(C(=O)NC2CCC(N(C)CC3CCN(c4cnc(C5CCC(=O)NC5=O)cc4C)CC3)CC2)ccc1Nc1ncc2c(n1)N(C)CC(F)(F)C(=O)N2C` (stereo not drawn) [Compound 12, 4-((7,7-difluoro-5,9-dimethyl-6-oxo-6,7,8,9-tetrahydro-5H-pyrimido[4,5-b][1,4]diazepin-2-yl)amino)-N-((1r,4r)-4-(((1-(6-(2,6-dioxopiperidin-3-yl)-4-methylpyridin-3-yl)piperidin-4-yl)methyl)(methyl)amino)cyclohexyl)-3-methoxybenzamide], the half-inhibitory concentration (IC50) in the experiment on NCI-H526 cell line is under 200 nM; in the experiment with MRC-5 cell line, over 10000 nM; in the experiment with NCI-H69 cell line, under 200 nM. In addition, on PLK1, the “Activity: ratio” value is on record as “+++ (+++: <0.3)”.

As to `CCN1CC(F)(F)C(=O)N(C)c2cnc(Nc3ccc(C(=O)NC4CCC(N(C)CC5CCN(c6cnc(C7CCC(=O)NC7=O)cc6C)CC5)CC4)cc3OC)nc21` (stereo not drawn) [Compound 13, N((1r,4r)-4-(((1-(6-(2,6-dioxopiperidin-3-yl)-4-methylpyridin-3-yl)piperidin-4-yl)methyl)(methyl)amino)cyclohexyl)-4-((9-ethyl-7,7-difluoro-5-methyl-6-oxo-6,7,8,9-tetrahydro-5H-pyrimido[4,5-b][1,4]diazepin-2-yl)amino)-3-methoxybenzamide], the IC50 in the experiment with NCI-H526 cell line is under 30 nM; in the experiment with MRC-5 cell line, over 10000 nM; in the experiment with NCI-H69 cell line, under 30 nM. For the same compound, the “Activity: ratio” value on PLK1 was “+++ (+++: <0.3)”.

These data come from patent publication US20260273072A1, “NOVEL PLK1 DEGRADATION INDUCING COMPOUND” (UPPTHERA, INC., priority 2023, published 2026).
